Test results reported in patent publication US11491168B2, “Combination of Bcl-2/Bcl-xL inhibitors and chemotherapeutic agent and use thereof” (ASCENTAGE PHARMA (SUZHOU) CO., LTD., priority 2019, dated 2022).

Tests used:
[1] = tested on: AGS gastric cancer cell line; test: CCK-8 cell viability, AGS; type: cell-based; conditions: within 72 hours
Excerpt: (§1) Thus, the sensitivity of gastric cancer cells to Compound 31 is closely related to the expression of Bcl-2, Bcl-xL and Bax.

[2] = tested on: NCI-N87 cells; test: CCK-8 anti-proliferation, NCI-N87, Compound 31 with docetaxel; type: cell-based; conditions: Homo sapiens; NCI-N87, 72 hours, Compound 31 alone
Procedure: Briefly, NCI-N87 cells were seeded in 96-well plates and treated with different Compound 31 at different concentrations for 72 hours. […] Each concentration was prepared in triplicates. At the end of treatment, CCK-8 agents (10 μL/well) were added to the 96-well plate, and incubated with the cells for 2 hours. The OD450 value was measured using a microplate reader.

[3] = tested on: AGS cells; test: AnnexinV/PI staining apoptosis, AGS; type: cell-based; conditions: 48 hours, Compound 31 0.3 μM, 5-FU 3 μM
Procedure: (§2) The inventors chose to combine Compound 31 with one of the most common chemotherapeutic drugs in clinic, 5-fluorouracil (5-FU). In order to investigate the effect and the potential mechanisms of Compound 31 and 5-FU on the growth of gastric cancer cells, the inventors used the AnnexinV/PI staining to detect the apoptosis of two gastric cancer cells, AGS and NCI-N87, 48 hours after the treatment with Compound 31 (0.3 μM), 5-FU (3 μM), and the combination at specified concentrations. […] In NCI-N87 cells, the combination group also achieved a higher apoptosis rate than the mono therapy groups, Compound 31 or 5-FU as a single agent leading to apoptosis rates of 24% or 18% while the combination group reaching an apoptosis rate of 46% (FIG. 29(a)).

[4] = tested on: AGS and NCI-N87 gastric cancer cell lines; test: cell cycle assay; type: cell-based
[5] = tested on: small cell lung cancer cell line NCI-H146, NCI-H69 and NCI-H446; test: Cell Titer-Glo luminescent cell viability assay (CTG); type: cell-based, human; conditions: small cell lung cancer cells
Procedure: Cells in the logarithmic growth phase were collected for Cell Titer-Glo® (CTG) luminescence cell viability assay. 10 μL of the diluted drug solution was added into a 96-well plate while 10 μL of the medium was added into the 96-well control plate. For the study of the combination, 5 μL of the indicated test reagent was added to each well. At the end of the study, the 96-well plates were equilibrated to room temperature, and then 30 μL of CTG reagent (protected from light) was added to each well to induce cell lysis. The luminescent signal was then detected using a Biotek Synergy H1 plate reader. Percent cell viability (%) was calculated using the mean luminescence value (LN) of the replicate wells (blank) of the control group, according to the following formula: percent cell viability (%)=(fluorescence signal value of experimental cells−fluorescence signal value of negative control cell)/(fluorescence signal value of control cells−fluorescence signal value of negative control cells)×100%.
Cell viability curve was plotted using Graphpad Prism 6.0 software (Golden software, Golden, Colo., USA). For the study of the drug combination, the Combination Index (CI) was calculated using CalcuSyn software (BIOSOFT, UK) to further analyze the combined effects of the indicated drugs (Chou, Cancer Research 70, 440-446). […]

[6] = tested on: NCI-N87 cells; test: AnnexinV/PI staining apoptosis, NCI-N87; type: cell-based; conditions: NCI-N87, 48 hours; Compound 31 0.3 μM, 5-FU 3 μM
Procedure: as §2

[7] = tested on: NCI-N87 gastric cancer cell line; test: CCK-8 cell viability, NCI-N87; type: cell-based; conditions: Homo sapiens; NCI-N87, within 72 hours
Excerpt: as §1

`Cc1c(S(C)(=O)=O)c(-c2cc(F)cc(N3CCN(c4ccc(NS(=O)(=O)c5ccc(N[C@H](CCN6CCC(C(=O)O)CC6)CSc6ccccc6)c(S(=O)(=O)C(F)(F)F)c5)cc4)CC3)c2)c(-c2ccc(Cl)cc2)n1C(C)C` [Compound 31, (R)-1-(3-(4-(N-(4-(4-(3-(2-(4-chlorophenyl)-1-isopropyl-5-methyl-4-(methylsulfonyl)-1H-pyrrol-3-yl)-5-fluorophenyl)piperazin-1-yl)phenyl)sulfamoyl)-2-(trifluoromethylsulfonyl)phenylamino)-4-(phenylthio)butyl)piperidine-4-carboxylic acid] was tested, and the IC50 [1] was 1150 ± 560 nM, the IC50 [2] was 405 nM and the apoptosis rate [3] was “approximately 22%”. For the same compound, the “effect on cell cycle” value [4] was “no significant effect on cell cycle”, the “inhibition of proliferation as a single agent” value [5] was “can inhibit proliferation of small cell lung cancer cells” and the apoptosis rate [6] was 24%. The IC50 [7] was 901 ± 230 nM.
